US11479539B2, “Small molecule modulators of the BTB domain of Keap1” (MedImmune Limited, priority 2017, dated 2022)

Target: Keap1 (Homo sapiens (Human), UniProt Q14145)
Assay: HEK293 ARE luciferase assay
Type: cell-based
Details: HEK-293 ARE firefly luciferase transiently transfected cells; 18 h incubation; mean of 1 to 20 individual measurements
Outline: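 Keap1 inhibition read as Nrf2-driven luciferase rise: compounds dosed in 10 points up to 100 μM (0.3% DMSO) on HEK-293 ARE luciferase cells, 10,000/well, 18 h at 37 °C, then SteadyGlo luminescence. Scaled between DMSO vehicle and 30 μM tBHQ; values average 1-20 runs.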

Chain of Keap1 (Q14145 whole entry): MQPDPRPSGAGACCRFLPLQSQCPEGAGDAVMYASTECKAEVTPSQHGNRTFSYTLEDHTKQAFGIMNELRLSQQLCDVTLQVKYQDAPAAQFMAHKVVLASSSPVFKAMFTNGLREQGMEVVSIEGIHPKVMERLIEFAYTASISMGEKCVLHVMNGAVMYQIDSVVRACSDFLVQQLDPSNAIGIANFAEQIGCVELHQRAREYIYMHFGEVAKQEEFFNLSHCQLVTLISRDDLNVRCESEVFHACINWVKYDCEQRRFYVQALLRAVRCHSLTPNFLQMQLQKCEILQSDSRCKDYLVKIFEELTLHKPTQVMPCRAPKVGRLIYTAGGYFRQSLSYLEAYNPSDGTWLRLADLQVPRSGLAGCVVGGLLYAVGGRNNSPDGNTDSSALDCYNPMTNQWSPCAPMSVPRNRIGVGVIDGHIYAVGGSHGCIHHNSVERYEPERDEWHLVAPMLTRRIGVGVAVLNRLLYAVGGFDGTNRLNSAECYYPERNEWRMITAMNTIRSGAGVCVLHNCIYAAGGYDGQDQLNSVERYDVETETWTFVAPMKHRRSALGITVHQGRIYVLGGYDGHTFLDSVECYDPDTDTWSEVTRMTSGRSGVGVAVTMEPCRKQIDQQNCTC

SMILES | EC50
COC1(c2ncc(F)cc2-c2ccnc(C)c2C)C=C(C#N)C(=O)C(C)(C)C1 (stereo not shown) [Compound 175, 3-(5-fluoro-2′,3′-dimethyl[3,4′-bipyridin]-2-yl)-3-methoxy-5,5-dimethyl-6-oxocyclohex-1-ene-1-carbonitrile] | 174 nM
C/C=C/c1cc(F)cnc1C1(OC)C=C(C#N)C(=O)C(C)(C)C1 (stereo not shown) [Compound 176, 3-{5-fluoro-3-[(1E)-prop-1-en-1-yl]pyridin-2-yl}-3-methoxy-5,5-dimethyl-6-oxocyclohex-1-ene-1-carbonitrile] | 19 nM
COC1(c2ncc(F)cc2-c2cccnc2C)C=C(C#N)C(=O)C(C)(C)C1 (stereo not shown) [Compound 177, 3-(5-fluoro-2′-methyl[3,3′-bipyridin]-2-yl)-3-methoxy-5,5-dimethyl-6-oxocyclohex-1-ene-1-carbonitrile] | 103 nM
COC1(c2ncc(F)cc2-c2ccns2)C=C(C#N)C(=O)C(C)(C)C1 (stereo not shown) [Compound 178, 3-[5-fluoro-3-(1,2-thiazol-5-yl)pyridin-2-yl]-3-methoxy-5,5-dimethyl-6-oxocyclohex-1-ene-1-carbonitrile] | 52 nM
COC1(c2ncc(F)cc2-c2cnn(-c3ccccc3)c2)C=C(C#N)C(=O)C(C)(C)C1 (stereo not shown) [Compound 179, 3-[5-fluoro-3-(1-phenyl-1H-pyrazol-4-yl)pyridin-2-yl]-3-methoxy-5,5-dimethyl-6-oxocyclohex-1-ene-1-carbonitrile] | 7 nM
COC1(c2ncc(F)cc2-c2cnn(C3CCCC3)c2)C=C(C#N)C(=O)C(C)(C)C1 (stereo not shown) [Compound 180, 3-[3-(1-cyclopentyl-1H-pyrazol-4-yl)-5-fluoropyridin-2-yl]-3-methoxy-5,5-dimethyl-6-oxocyclohex-1-ene-1-carbonitrile] | 115 nM
CCn1cc(-c2cc(F)cnc2C2(OC)C=C(C#N)C(=O)C(C)(C)C2)cn1 (stereo not shown) [Compound 181, 3-[3-(1-ethyl-1H-pyrazol-4-yl)-5-fluoropyridin-2-yl]-3-methoxy-5,5-dimethyl-6-oxocyclohex-1-ene-1-carbonitrile] | 68 nM
COC1(c2ncc(F)cc2-c2cncc(F)c2)C=C(C#N)C(=O)C(C)(C)C1 (stereo not shown) [Compound 182, 3-(5,5′-difluoro[3,3′-bipyridin]-2-yl)-3-methoxy-5,5-dimethyl-6-oxocyclohex-1-ene-1-carbonitrile] | 105 nM
COC1(c2ncc(F)cc2-c2cnc(C)nc2)C=C(C#N)C(=O)C(C)(C)C1 (stereo not shown) [Compound 183, 3-[5-fluoro-3-(2-methylpyrimidin-5-yl)pyridin-2-yl]-3-methoxy-5,5-dimethyl-6-oxocyclohex-1-ene-1-carbonitrile] | 121 nM
COC1(c2ncc(F)cc2-c2cncc(C#N)c2)C=C(C#N)C(=O)C(C)(C)C1 (stereo not shown) [Compound 184, 2′-(3-cyano-1-methoxy-5,5-dimethyl-4-oxocyclohex-2-en-1-yl)-5′-fluoro[3,3′-bypyridine]-5-carbonitrile] | 121 nM
COC1(c2ncc(F)cc2-c2cncc(Cl)c2)C=C(C#N)C(=O)C(C)(C)C1 (stereo not shown) [Compound 185, 3-(5′-chloro-5-fluoro[3,3′-bypyridin]-2-yl)-3-methoxy-5,5-dimethyl-6-oxocyclohex-1-ene-1-carbonitrile] | 8 nM
COC1(c2ncc(F)cc2-c2cncc(C(F)(F)F)c2)C=C(C#N)C(=O)C(C)(C)C1 (stereo not shown) [Compound 186, 3-[5-fluoro-5′-(trifluoromethyl)[3,3′-bypyridin]-2-yl]-3-methoxy-5,5-dimethyl-6-oxocyclohex-1-ene-1-carbonitrile] | 75 nM
COC1(c2ncc(F)cc2-c2c(C)nn(C)c2C)C=C(C#N)C(=O)C(C)(C)C1 (stereo not shown) [Compound 187, 3-[5-fluoro-3-(1,3,5-trimethyl-1H-pyrazol-4-yl)pyridin-2-yl]-3-methoxy-5,5-dimethyl-6-oxocyclohex-1-ene-1-carbonitrile] | 77 nM
COC1(c2ncc(F)cc2-c2ccn3ncnc3c2)C=C(C#N)C(=O)C(C)(C)C1 (stereo not shown) [Compound 188, 3-[5-fluoro-3-([1,2,4]triazolo[1,5-a]pyridin-7-yl)pyridin-2-yl]-3-methoxy-5,5-dimethyl-6-oxocyclohex-1-ene-1-carbonitrile] | 23 nM
COC1(c2ncc(F)cc2-c2c(C)nn(C)c2C)C=C(C#N)C(=O)C(C)(C)C1 (stereo not shown) [Compound 189, 3-[5-fluoro-3-(1,3,5-trimethyl-1H-pyrazol-4-yl)pyridin-2-yl]-3-methoxy-5,5-dimethyl-6-oxocyclohex-1-ene-1-carbonitrile] | 1530 nM
COC1(c2ncc(F)cc2-c2ccn3ncnc3c2)C=C(C#N)C(=O)C(C)(C)C1 (stereo not shown) [Compound 190, 3-[5-fluoro-3-([1,2,4]triazolo[1,5-a]pyridin-7-yl)pyridin-2-yl]-3-methoxy-5,5-dimethyl-6-oxocyclohex-1-ene-1-carbonitrile] | 1680 nM
COC1(c2ncc(F)cc2-c2sc(C)nc2C)C=C(C#N)C(=O)C(C)(C)C1 (stereo not shown) [Compound 191, 3-[3-(2,4-dimethyl-1,3-thiazol-5-yl)-5-fluoropyridin-2-yl]-3-methoxy-5,5-dimethyl-6-oxocyclohex-1-ene-1-carbonitrile] | 12 nM
COC1(c2ncc(F)cc2-c2cc[nH]c(=O)c2)C=C(C#N)C(=O)C(C)(C)C1 (stereo not shown) [Compound 192, 3-(5-fluoro-2′-oxo[1′,2′-dihydro[3,4′-bipyridine]]-2-yl)-3-methoxy-5,5-dimethyl-6-oxocyclohex-1-ene-1-carbonitrile] | > 10000 nM
COC1(c2ncc(F)cc2-c2cccc(=O)[nH]2)C=C(C#N)C(=O)C(C)(C)C1 (stereo not shown) [Compound 193, 3-(5′-fluoro-6-oxo[1,6-dihydro[2,3′-bipyridine]]-2′-yl)-3-methoxy-5,5-dimethyl-6-oxocyclohex-1-ene-1-carbonitrile] | > 10000 nM
COC1(c2nc(C)c(-c3ccccn3)s2)C=C(C#N)C(=O)C2(CC2)C1 (stereo not shown) [Compound 194, 7-methoxy-7-[4-methyl-5-(pyridin-2-yl)-1,3-thiazol-2-yl]-4-oxospiro[2.5]oct-5-ene-5-carbonitrile] | 203 nM
COC1(c2ncc(F)cc2-c2sc(C)nc2C)C=C(C#N)C(=O)C(C)(C)C1 (stereo not shown) [Compound 195, 3-[3-(2,4-dimethyl-1,3-thiazol-5-yl)-5-fluoropyridin-2-yl]-3-methoxy-5,5-dimethyl-6-oxocyclohex-1-ene-1-carbonitrile] | 1300 nM
COC1(c2ncc(F)cc2C(F)F)C=C(C#N)C(=O)C2(CC2)C1 (stereo not shown) [Compound 196, 7-[3-(difluoromethyl)-5-fluoropyridin-2-yl]-7-methoxy-4-oxospiro[2.5]oct-5-ene-5-carbonitrile] | 46 nM
CO[C@]1(c2ncc(Cl)cn2)C=C(C#N)C(=O)C(C)(C)C1 [Compound 214, (3S)-3-(5-chloropyrimidin-2-yl)-3-methoxy-5,5-dimethyl-6-oxocyclohex-1-ene-1-carbonitrile] | 20 nM
COC1(c2ccc(C)cn2)C=C(C#N)C(=O)C(C)(C)C1 (stereo not shown) [Compound 239, 3-methoxy-5,5-dimethyl-3-(5-methylpyridin-2-yl)-6-oxocyclohex-1-ene-1-carbonitrile] | 50 nM
COC1(c2ccc(F)cn2)C=C(C#N)C(=O)C2(CCCC2)C1 (stereo not shown) [Compound 240, 9-(5-fluropyridin-2-yl)-9-methoxy-6-oxospiro[4.5]dec-7-ene-7-carbonitrile] | 838 nM
